This is an account of results in patent US10731159B2, “Cationic lipid” (DAIICHI SANKYO COMPANY, LIMITED, priority 2013, dated 2020).

Series [1] is described as follows: Average particle size of nucleic acid lipid particle (NICOMP 380ZLS). The class given is physicochemical. The method, then:
The particle size of the liposome was measured using Zeta Potential/Particle Sizer NICOMP™ 380ZLS (Particle Sizing Systems, LLC). In the tables, the average particle size is indicated by a volume-average particle size, and the numeric value following ±represents a deviation.

Series [2] can be described thus: Rate of encapsulation of polynucleotide/mRNA (Quant-iT RiboGreen, with and without Triton X-100). The class given is physicochemical. As to the method:
The rate of encapsulation of the double-stranded polynucleotide was measured using Quant-iT RiboGreen RNA Assay kit (Invitrogen Corp.) according to the attached document.
Specifically, the double-stranded polynucleotide in the nucleic acid lipid particle dispersion was quantified in the presence and absence of a 0.015% Triton X-100 detergent, and the rate of encapsulation was calculated according to the following expression: {[Amount of the double-stranded polynucleotide in the presence of the detergent]−[Amount of the double-stranded polynucleotide in the absence of the detergent]}/[Amount of the double-stranded polynucleotide in the presence of the detergent]}×100(%) (3) Ratio of Double-Stranded Polynucleotide to Lipid
The rate of encapsulation of the mRNA was measured using Quant-iT RiboGreen RNA Assay kit (Invitrogen Corp.) according to the attached document.
Specifically, the mRNA in the nucleic acid lipid particle dispersion was quantified in the presence and absence of a 0.015% Triton X-100 detergent, and the rate of encapsulation was calculated according to the following expression: {[Amount of the mRNA in the presence of the detergent]−[Amount of the mRNA in the absence of the detergent]}/[Amount of the mRNA in the presence of the detergent]}×100(%) (3) Ratio of mRNA to Lipid

Series [3] is described as follows: Ratio of polynucleotide/mRNA to lipid (wt/wt). The series is classed as physicochemical. The method, then:
The nucleic acid lipid particle dispersion was mixed with acetonitrile and chloroform at a ratio of 1:1:1 and centrifuged at 15,000 rpm for 2 minutes. Then, the aqueous layer obtained as an upper layer was recovered, followed by the extraction of the double-stranded polynucleotide. The amount of the double-stranded polynucleotide in the sample was measured by ion-exchange chromatography (system: Agilent 1100 series, column: TSKgel DEAE-2SW (2.6×150 mm) (Tosoh Corp), buffer A: 20% acetonitrile, buffer B: 20% acetonitrile and 1.6 M ammonium formate, gradient (B %): 30-55% (0-20 min), flow rate: 1 mL/min, temperature: 40° C., detection: 260 nm).
The amount of the phospholipid in the nucleic acid lipid particle dispersion was measured using Phospholipid C-Test Wako (Wako Pure Chemical Industries Ltd.) according to the attached document. Specifically, the phospholipid in the sample was quantified in the presence of a 1% Triton X-100 detergent.
The amounts of cholesterol and LP in the nucleic acid lipid particle dispersion were measured by reverse-phase chromatography (system: Agilent 1100 series, column: Chromolith Performance RP-18 endcapped 100-3 monolithic HPLC-column (Merck), buffer A: 0.01% trifluoroacetic acid, buffer B: 0.01% trifluoroacetic acid and methanol, gradient (B %): 87-92% (0-10 min), flow rate: 2 mL/min, temperature: 50° C., detection: 205 nm).
The total amount of lipids was calculated from the amount of the phospholipid and the compositional ratio of lipid components constituting the liposome, and the ratio of the polynucleotide to the lipid was calculated from the aforementioned amount of the polynucleotide and the total amount of lipids according to the following expression: [Double-stranded polynucleotide concentration]/[Total lipid concentration] (wt/wt)
The total amount of lipids was calculated from the amount of the phospholipid, the amount of cholesterol, and the amount of LP, and the compositional ratio of lipid components constituting the liposome, and the ratio of the polynucleotide to the lipid was calculated from the aforementioned amount of the polynucleotide and the total amount of lipids according to the following expression: [Double-stranded polynucleotide concentration]/[Total lipid concentration] (wt/wt)
The amount of the double-stranded polynucleotide in a sample from the nucleic acid lipid particle dispersion was measured in the presence of a 5% Triton X-100 detergent by ion-exchange chromatography (system: Agilent 1100 series, column: DNAPac PA200 (4×250 mm) (Thermo Fisher Scientific K.K.), buffer A: 10 mM Tris, 25 mM sodium perchlorate, and 20% ethanol, pH 7.0, buffer B: 10 mM Tris, 250 mM sodium perchlorate, and 20% ethanol, pH 7.0, gradient (B %): 20-70% (0-15 min), flow rate: 0.5 mL/min, temperature: 40° C., detection: 260 nm).
The amounts of cholesterol and LP in the nucleic acid lipid particle dispersion were measured by reverse-phase chromatography (system: Agilent 1100 series, column: Chromolith Performance RP-18 endcapped 100-3 monolithic HPLC-column (Merck), buffer A: 0.01% trifluoroacetic acid, buffer B: 0.01% trifluoroacetic acid and methanol, gradient (B %): 82-92% (0-10 min), flow rate: 2 mL/min, temperature: 50° C., detection: 205 nm).
The total amount of lipids was calculated from the amount of the phospholipid, the amount of cholesterol, and the amount of LP, and the compositional ratio of lipid components constituting the liposome, and the ratio of the mRNA to the lipid was calculated from the “amount of the mRNA in the presence of the detergent” of the preceding paragraph (2) according to the following expression: [mRNA concentration in the presence of the detergent]/[Total lipid concentration] (wt/wt)

The test system of series [4] is human β-catenin gene. The experiment in a line: Test Example 1: β-catenin gene expression inhibition in SW480 cells, 3 days, real-time PCR. The class given is cell-based. As to the method:
(§1) As described below, the strength of human β-catenin gene expression inhibitory activity was compared among nucleic acid lipid particles each prepared using a novel lipid.
The concentration of a human colorectal cancer SW480 cell line (derived from human colorectal adenocarcinoma) was adjusted to 50,000 cells/mL in an RPMI1640 medium (manufactured by Invitrogen Corp.) containing 10% fetal bovine serum (culture medium). Then, the resulting culture solution was inoculated at 100 μL/well to a 96-well flat-bottomed plate (manufactured by Corning Inc./Falcon) and cultured at 37° C. for 1 day under 5.0% CO2. The nucleic acid lipid particle dispersion prepared in Example 31 was diluted with a culture medium to prepare dilution series having final double-stranded polynucleotide concentrations of 30, 3.0, 0.3, and 0.03 nM in the medium. Then, each dilution was added to the cells after removal of the culture supernatant, and the culture was further continued for 3 days. This operation was performed at N=3 for each concentration.
(§2) A lysate and cDNA for real-time PCR measurement were prepared from the transfected cells using TaqMan® Fast-Cells-to-Ct kit (Life Technologies, Inc./Ambion) according to the instruction manual. In the lysate preparation, Lysis Solution supplemented with DNase I was used. The probes for real-time PCR used were TaqMan® Gene Expression Assays (CTNNB1, FAM probe) (Hs00355045_m1, manufactured by Applied Biosystems, Inc.) for the human β-catenin gene and a human GAPDH gene probe as an internal standard (VIC probe, Hs99999905_m1, manufactured by Applied Biosystems, Inc.). 5 μL of TaqMan® Fast Advanced Master Mix, 2 μL of RNase-Free Water, 0.5 μL of each gene probe, and 2 μL of the prepared cDNA solution were added per well of a 384-well PCR plate (manufactured by Applied Biosystems, Inc.) to bring the total amount to 10 μL, which was then loaded in ViiA™ 7 Real-time PCR system (manufactured by Applied Biosystems, Inc.) and subjected to PCR under conditions given below. The real-time PCR was carried out at N=4 for the cDNA prepared from the lysate.
(§3) PCR initial activation: 95° C. for 20 seconds
(§4) PCR: 95° C. for 1 second • 62° C. for 20 seconds
(§5) This PCR cycle was repetitively performed 40 times.
(§6) The quantitative analysis was conducted by the ΔΔCt method.
(In general: Real-time PCR tracks product formation cycle by cycle.)

For series [5], the system named is human β-catenin gene. The experiment in a line: Test Example 2: β-catenin gene expression inhibition in HepG2 cells, 3 days, real-time PCR. The class given is cell-based. The method, then: as §1
The concentration of a human liver cancer HepG2 cell line (derived from human liver cancer) was adjusted to 50000 cells/mL in a DMEM medium (manufactured by Invitrogen Corp.) containing 10% fetal bovine serum (culture medium). Then, the resulting culture solution was inoculated at 100 μL/well to a 96-well flat-bottomed plate (manufactured by Corning Inc./Falcon) and cultured at 37° C. for 1 day under 5.0% CO2. The nucleic acid lipid particle-containing dispersion prepared in Example 31 was diluted with a culture medium to prepare dilution series having final double-stranded polynucleotide concentrations of 30, 3, 0.3, and 0.03 nM in the medium. Then, each dilution was added to the cells after removal of the culture supernatant, and the culture was further continued for 3 days. This operation was performed at N=3 for each concentration.
as §2, §3, §4, §5, §6

In a further series the test system is Factor VII protein. The experiment in a line: Test Example 9: Factor VII (FVII) protein measurement in mouse plasma, 0.1 mg/kg i.v. Particulars: mice, i.v. 0.1 mg/kg; for FVII inhibitory activity (in words): 1 day and 6 days after administration; for Relative amount of FVII, 1 day later: plasma 1 day after administration; for Relative amount of FVII, 1 day later / Relative amount of FVII, 6 days later: PBS = 100%; for Relative amount of FVII, 6 days later: plasma 6 days after administration. The series is classed as in vivo. As to the method:
The Factor VII protein was measured according to a method described in Nature Biotechnology (2010) 28, 172-176. C57BL6/J mice (male, 9 weeks old) were randomly grouped (n=4). The nucleic acid lipid particle dispersion prepared in Example 33 was intravenously injected at a dose of 0.3 mg/kg to the tail of each mouse. One day after the administration, approximately 50 μL of blood was collected from the tail vein, and plasma was obtained. The amount of the Factor VII protein in the obtained plasma was measured using Biophen FVII assay kit (manufactured by Aniara Corp.) according to the attached protocol.
When the amount of FVII of respective plasma samples collected in equal amounts from individuals in a PBS administration group was defined as 100%, the relative ratio (%) of the amount of FVII in a plasma sample of each individual was used as a measurement value (A). An average value (B) was determined from the respective measurement values of the individuals in the PBS administration group. The relative ratio of the measurement value (A) of each individual was determined from the expression: A/B×100(%).
By the same procedures as in Test Example 7, the strength of Factor VII protein expression inhibitory activity was compared among nucleic acid lipid particles each prepared using a novel lipid. The prepared nucleic acid lipid particle dispersion was intravenously injected at a dose of 0.1 mg/kg to the tail of each mouse. One day and 6 days after the administration, approximately 50 μL of blood was collected from the tail vein, and plasma was obtained.

The mark [6] stands for this setting: compared with particle containing lipid of Reference Example 2.
Setting [7] is: Example 56: siFVII, DSPC:Chol:LP:PEG-C-DMA=10:48:40:2, N/P 3, ± deviation.
[8] abbreviates: Example 56: siFVII, DSPC:Chol:LP:PEG-C-DMA=10:48:40:2, N/P 3.

pIC50: −log10 of the molar value.

Usually pIC50 stands for the negative decadic logarithm of the IC50, by convention in mol/L. Regarding `CCCCC/C=C\C/C=C\CCCCCCCC(CCCCCCC/C=C\C/C=C\CCCCC)OC(=O)OCCCCN(C)C` [Example 3, 4-(Dimethylamino)butyl(6Z,9Z,26Z,29Z)-pentatriaconta-6,9,26,29-tetraen-18-yl Carbonate], the Average particle size in series [1] (particles of Example 31, volume-average particle size ± deviation) is recorded as 187 ± 31 nm. Moreover, the “Rate of polynucleotide encapsulation” value in series [2] (particles of Example 31: DSPC:Chol:LP:PEG-C-DMA=20:48:30:2, CT-157/CT-169 double-stranded polynucleotide) is given as 98.6%. Besides, the “Ratio of polynucleotide to lipid siRNA/lipid” value (“Ratio … to lipid siRNA/lipid” for short) in series [3] (particles of Example 31, total lipids calculated from phospholipid amount and compositional ratio (Table 3)) is 0.099 wt/wt. For the same compound, the “inhibitory activity against β-catenin gene expression (in words)” value in the series with human β-catenin gene [4] (setting [6]) and with human β-catenin gene [5] (setting [6]) was “strong inhibitory activity” in each case. Also, the pIC50 in the series with human β-catenin gene [4] (nucleic acid lipid particle of Example 31 containing the named lipid, double-stranded polynucleotide concentration, read-out: β-catenin gene expression inhibitory activity IC50) was 9.36; in the series on human β-catenin gene [5] (nucleic acid lipid particle of Example 31 containing the named lipid, read-out: β-catenin gene expression inhibitory activity IC50), 9.46.

Consider `CCCCCC[C@H](C/C=C\CCCCCCCC(CCCCCCC/C=C\C[C@@H](CCCCCC)OC(C)=O)OC(=O)OCCCN(C)C)OC(C)=O` [Example 23, (7R,9Z,26Z,29R)-18-({[3-(Dimethylamino)propoxy]carbonyl}oxy)pentatriaconta-9,26-diene-7,29-diyl Diacetate], for which, in series [1] (setting [7]), the Average particle size worked out at 219 ± 49 nm. Also, in series [2] (setting [8]), the “Rate of polynucleotide encapsulation” value came out at 99%. The “Ratio … to lipid siRNA/lipid” value in series [3] (setting [8]) is 0.076 wt/wt. Besides, in the series on Factor VII protein, the “FVII inhibitory activity (in words)” value is “strong FVII inhibitory activity”; the “Relative amount of FVII, 1 day later” value stood at 21%; the “Relative amount of FVII, 6 days later” value was 32%.

As for `CCCCCCCCCCC(CCCCCCC/C=C\C[C@@H](CCCCCC)OC(C)=O)OC(=O)OCCCN(C)C` (stereo partly drawn) [Example 28, (7R,9Z)-18-({[3-(Dimethylamino)propyloxy]carbonyl}oxy)octacos-9-en-7-yl Acetate], the Average particle size in series [1] (setting [7]) turned out to be 177 ± 36 nm. The “Rate of polynucleotide encapsulation” value in series [2] (setting [8]) is given as 97%. Also, in series [3] (setting [8]), the “Ratio … to lipid siRNA/lipid” value is 0.083 wt/wt. Moreover, in the series with Factor VII protein, the “FVII inhibitory activity (in words)” value is “strong FVII inhibitory activity”; the “Relative amount of FVII, 1 day later” value came out at 45%; the “Relative amount of FVII, 6 days later” value is given as 57%.
